Broadly, the Kd is the concentration at which binding is half-saturated.

Entries after “also recorded” stand apart in the source; their conditions may differ. Some results are limits rather than exact numbers.

The conditions of data set [1]: cited from earlier work.
Data set [2] deals with acVHH-V104D/dfM1-1. Briefly: NanoBiT assay in Jurkat T cells, small molecule titration of acVHH-V104D/dfM1-1. It counts as cell-based, llama. The source says: (§1) The ac VHH variants were N-terminally fused to an extracellular globular domain used to assess expression, as well as a transmembrane domain, and C-terminally fused to a subunit of the split NanoLuc (NanoBiT® system), Promega. Thus, the resulting fusion protein consisted of an extracellular globular domain, followed by a transmembrane domain and intracellular ac VHH variants followed by a subunit of split NanoLuc luciferase.
(§2) The different chains built were as follows: the first polypeptide chain comprised truncated EGFR extracellular and transmembrane domain, followed by a 2×G4S linker and cither ac VHH-V104D or ac VHH-WT, followed by a linker (SEQ ID NO:31) and 11S NanoBiT® “Large BiT”, whereas the second polypeptide chain comprised truncated HER2 extracellular and transmembrane domain, followed by a linker (SEQ ID NO:32) and either ac VHH-V104D or ac VHH-WT or ac VHH-M1 or acVHH-M2 or dfM1-1 or dfM1-2, followed by a linker (SEQ ID NO:33) and 114 NanoBiT® “Small BiT”. […] The principle of the assay is as follows: upon binding of (i.e. dimerization) of the respective ac VHH variants, the fused NanoLuc luciferase subunits are brought into close proximity (the two subunits being fused to the two different polypeptide chains, respectively), thus resulting in a functional luciferase enzyme, whose activity can be measured. […]

For data set [3], the system named is acVHH-V104D/dfM1-2. As to the kind of experiment: NanoBiT assay in Jurkat T cells, small molecule titration of acVHH-V104D/dfM1-2. Format: cell-based, llama.
Text: as §1, §2

Data set [4] has as its target acVHH-V104D. Particulars: read-out: binding affinity (KD) of caffeine to acVHH-V104D; SPR multi-cycle kinetics, steady state analysis; acVHH-V104D immobilised on CM5 chip. The procedure:
A stock of 30 μg/mL protein ac VHH-V104D was prepared in 10 mM NaAc buffer of pH 5 and covalently immobilised on a CM5 chip (GE Healthcare) with a 300 sec contact time and 10 μL/min flow rate to reach 4 600 response units (RU). […] KD values were obtained by steady state analysis.

Data set [5] has as its system Raji target cells. Briefly: IFN-γ and IL-2 secretion (ELISA) of transduced split CAR T cells co-cultured with Raji target cells. It counts as cell-based, human. Particulars: medium, 0.1 μM or 100 μM caffeine, overnight, E:T 2:1. (In general: In an ELISA, binding on a coated surface is turned into a signal by an enzyme label.)
Text: The nucleotide sequence encoding the monomeric CAR chain 1 (SEQ ID NO:34) containing dfM1-1 was fused to the nucleotide sequence encoding the dimeric CAR chain 2 (SEQ ID NO:36) or to the nucleotide sequence encoding monomeric CAR chain 2 (SEQ ID NO:37) via a furin cleavage site and 2A sequence (SEQ ID NO:41) and cloned into a third generation lentiviral expression vector with puromycin resistence gene (pCDH, System Biosciences). This plasmid, along with second-generation viral packaging plasmids (psPAX2 and pMD2.G, Addgene plasmids #12260 and #12259), was co-transfected in Lenti-X 293T cells (Takara) using the PureFection Transfection Reagent (System Biosciences) according to instructions provided by the manufacturer. Supernatants were collected on day 2 and 3 following transfection and concentrated 100-fold using Lenti-X Concentrator (Takara) according to the manufacturer's instructions. Viral suspensions were resuspended in RPMI-1640 medium supplemented with 10% FCS and 1% penicillin-streptomycin and frozen at −80° C. […]
Supernatants of triplicate wells were pooled and stored at −80° C. IFN-γ and IL-2 secretion was quantified by ELISA using kits from Biolegend (ELISA MAX Deluxe Set Human IFN-γ and ELISA MAX Deluxe Set Human IL-2, respectively), according to the manufacturer's instructions.
Data set [6] has as its system acVHH-V104D/acVHH-M1. Particulars: Jurkat T cells; compared with homodimeric switch acVHH-WT.
Text: as §1, §2

Data set [7] deals with CD19-positive Jurkat target cells. Briefly: Lysis of target cells by split CAR-expressing primary human T cells with or without dimerizer. Particulars: 50 μM caffeine or medium only, E:T 2:1, 4 h; split CARs with dfM1-1 or dfM1-2 and acVHH V104D. It counts as cell-based.
Text: 4 different architectures of split CARs consisting of two chains were investigated per acVHH variant where both the first and second chain of the split CAR is either monomeric or dimeric. A dimeric first CAR chain entails an FMC63 scFv followed by a linker followed by a Flag tag followed by a CD8a hinge and transmembrane domain followed by a 4-1BB co-stimulatory domain followed by a linker followed by acVHH dfM1-1 or dfM1-2 (SEQ ID NO:34 where ac VHH is dfM1-1). The only difference for a monomeric first CAR chain is the mutation of the two cysteine residues in the CD8a hinge to serine residues (SEQ ID NO:35). A dimeric second chain entails a DAP10 extracellular domain followed by a CD8 transmembrane domain followed by 2 amino acids followed by a 4-1BB co-stimulatory domain followed by a linker followed by ac VHH V104D followed by a linker followed by CD3z signaling domain followed by a linker followed by m Cherry (SEQ ID NO:36). […]
After electroporation, the cells were incubated for 6 h at 37° C. […] The cells were co-cultured for 4 h at 37° C., then 150 μg/mL luciferin (Xenolight D-luciferin, Perkin Elmer) was added to each well and luminescence was measured after 20 min with an ENSPIRE Multimode plate reader (Perkin Elmer). Specific lysis was calculated according to the formula:
Data set [8] relates to acVHH-V104D+acVHH-M2. Format: binding, llama. Particulars: 500 nM soluble acVHH-V104D ± 10 μM compound. The procedure:
(§3) Expression of the acVHH variants on yeast was induced by culturing the cells in SG-CAA medium (20 g/L galactose, 2 g/L glucose, 6.7 g/L yeast nitrogen base, 5 g/L bacto casamino acids, 10.2 g/L Na2HPO4*7 H2O, 8.56 g/L NaH2PO4*H2O) overnight at 20° C. and 180 rpm. Detection of full-length proteins on the surface of the cells was carried out by staining the cells with anti-c-myc AlexaFluor 488 (9E10, Thermo Fisher). […] After a washing step with PBSA, they were stained with an anti-HA-Alexa Fluor 488 (BioLegend) to gate for displaying yeast cells and the geometric mean fluorescence intensity (gMFI) of binding to acVHH-V104D, detected by co-staining with a Penta-His-Alexa Fluor 647 (Qiagen) (recognizing the His-tag on acVHH-V104D) was measured.

Data set [9] has as its system acVHH-V104D+acVHH-M1. As to the kind of experiment: Yeast display, small molecule-triggered heterodimerization acVHH-V104D + acVHH-M1. Format: binding, llama. Particulars: 500 nM soluble acVHH-V104D ± 10 μM compound. The procedure: as §3
(§4) 56 clones of the library were sequenced as explained in Example 2. […] Their binding and affinity to soluble acVHH-V104D as well as full length display was assessed with yeast surface display as described in Example 2.
(§5) EC50 values were calculated like the KD values by fitting the gMFI binding values to a 1:1 binding interaction model (Zajc et al., Methods Mol Biology. 2022; 2491:155-173).

The subject of data set [10] is V104D+dfM1-2. Particulars: 500 nM soluble acVHH-V104D ± 10 μM compound. The procedure:
as §3, §4, §5

The subject of data set [11] is V104D+dfM1-1. The conditions noted are these: 500 nM soluble acVHH-V104D ± 10 μM compound. The procedure:
as §3, §4, §5

The mark [12] stands for this setting: compared with homodimeric switch acVHH-WT.
[13] abbreviates: increasing concentrations of theobromine.

As for `Cn1c(=O)c2c(ncn2C)n(C)c1=O` [caffeine], the “plasma levels of caffeine” value in data set [1] (absence of coffee, tea and chocolate consumption for 21 days, detection limit of the method) is on record as < 500 nM. In addition, the “maximum plasma caffeine levels” value in [1] (after drinking one cup of coffee) is ~10 µM. The caffeine plasma levels in data set [1] (nonhabitual coffee drinkers after coffee abstinence for at least 16 hours) is 1.9 ± 1.6 µmol/L. In data set [2] (setting [12]), the “EC50 for caffeine, V104D+dfM1-1, NanoBiT” value was “increased”. Also, the “EC50 for caffeine, V104D+dfM1-2, NanoBiT” value in data set [3] (setting [12]) is “increased”. In addition, in data set [4], the Kd came out at 72.4 mM. For the same compound, in data set [5], the “IFN-γ and IL-2 secretion of split CAR T cells” value is listed as “strong dependence”. Also, the “EC50 for caffeine, V104D+M1, NanoBiT” value in [6] is “increased”. Besides, in data set [7], the “lysis of CD19-positive Jurkat T cells by split CAR T cells” value was “caffeine-dependent cytotoxic activity”.

For the compound `Cn1c(=O)[nH]c2ncn(C)c2c1=O` [paraxanthine], the “triggering of heterodimerization acVHH-V104D/acVHH-M2” value in data set [8] is recorded as “can trigger”. The “triggering of heterodimerization acVHH-V104D/acVHH-M1” value in data set [9] is “can trigger”.

As for `Cn1cnc2c1c(=O)[nH]c(=O)n2C` [theobromine], the “triggering of heterodimeric switch acVHH-V104D/dfM1-1” value in data set [2] (setting [13]) was “can trigger”. Also, the “triggering of heterodimeric switch acVHH-V104D/dfM1-2” value in data set [3] (setting [13]) is “can trigger”. In addition, the “triggering of heterodimerization acVHH-V104D/acVHH-M2” value in data set [8] is “can trigger”. Further, the “triggering of heterodimerization acVHH-V104D/acVHH-M1” value in data set [9] was “can trigger”.

Turning to `Cn1c(=O)c2[nH]cnc2n(C)c1=O` [theophylline], in [8], the “triggering of heterodimerization acVHH-V104D/acVHH-M2” value is recorded as “can trigger”. Moreover, the “triggering of heterodimerization acVHH-V104D/dfM1-2” value in data set [10] is given as “can be triggered”. For the same compound, in [11], the “triggering of heterodimerization acVHH-V104D/dfM1-1” value is “can be triggered”. Besides, the “triggering of heterodimerization acVHH-V104D/acVHH-M1” value in [9] is “can trigger; also recorded: can be triggered”.

Values taken from patent US20240400722A1, “Chemically Inducible Heterodimerizing System and A Method For Generation Thereof” (Miltenyi Biotec B.V. & Co. KG, priority 2023, published 2024).
